From patent US20240041042A1, “1-(PYRIDYL)-5-AZINYLPYRAZOLE DERIVATIVES, AND THEIR USE FOR CONTROL OF UNDESIRED PLANT GROWTH” (Bayer Aktiengesellschaft, priority 2020, published 2024)
Read-outs that look alike come from different tables or passages of the source.

Columns and labels:
Format in all cases: in vivo
[1] = test system: Abutilon theophrasti (ABUTH); experiment: Pre-emergence herbicidal action against ABUTH; details: 100% = plants have died
Summary of the method: (§1)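 Read-out is visual percent damage relative to untreated pots, with 100% meaning dead plants and 0% meaning no difference, assessed roughly three weeks after treatment. Compounds were applied pre-emergence to the covering soil at up to 320 g/ha.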

[2] = test system: Alopecurus myosuroides (ALOMY); experiment: Pre-emergence herbicidal action against ALOMY; details: scored visually after about 3 weeks, 100% = plants have died
Summary of the method: as §1

[3] = test system: Amaranthus retroflexus (AMARE); experiment: Pre-emergence herbicidal action against AMARE; details: visual scoring after about 3 weeks vs untreated controls
Summary of the method: as §1

Avena fatua (AVEFA) [4] = experiment: Pre-emergence herbicidal action against AVEFA; details: visual scoring after about 3 weeks vs untreated controls
Summary of the method: as §1

[5] = test system: Echinochloa crus-galli (ECHCG); experiment: Pre-emergence herbicidal action against ECHCG
Summary of the method: as §1

Lolium rigidum (LOLRI) [6] = experiment: Pre-emergence herbicidal action against LOLRI
Summary of the method: as §1

[7] = test system: Matricaria inodora (MATIN); experiment: Pre-emergence herbicidal action against MATIN
Summary of the method: as §1

[8] = test system: Pharbitis purpurea (PHBPU); experiment: Pre-emergence herbicidal action against PHBPU
Summary of the method: as §1

[9] = test system: Polygonum convolvulus (POLCO); experiment: Pre-emergence herbicidal action against POLCO
Summary of the method: as §1

Setaria viridis (SETVI) [10] = experiment: Pre-emergence herbicidal action against SETVI
Summary of the method: as §1

[11] = test system: Verconica persica (VERPE); experiment: Pre-emergence herbicidal action against VERPE
Summary of the method: as §1

Viola tricolor (VIOTR) [12] = experiment: Pre-emergence herbicidal action against VIOTR
Summary of the method: as §1

[13] = test system: Alopecurus myosuroides (ALOMY); experiment: Post-emergence herbicidal action against ALOMY; details: visual rating about 3 weeks after treatment vs untreated controls (100% = plants have died, 0% = like control plants)
Summary of the method: (§2)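 Greenhouse plants sprayed at the one-leaf stage, 2–3 weeks after sowing, with WP or EC formulations plus 0.5% additive at 600 l/ha water. Activity rated visually after about 3 weeks versus untreated controls (100% = dead, 0% = like control), at 320 g/ha or lower.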

Avena fatua (AVEFA) [14] = experiment: Post-emergence herbicidal action against AVEFA; details: visual rating about 3 weeks after treatment
Summary of the method: as §2

[15] = test system: Echinochloa crus-galli (ECHCG); experiment: Post-emergence herbicidal action against ECHCG
Summary of the method: as §2

Lolium rigidum (LOLRI) [16] = experiment: Post-emergence herbicidal action against LOLRI
Summary of the method: as §2

[17] = test system: Matricaria inodora (MATIN); experiment: Post-emergence herbicidal action against MATIN
Summary of the method: as §2

[18] = test system: Verconica persica (VERPE); experiment: Post-emergence herbicidal action against VERPE
Summary of the method: as §2

Oryza sativa (ORYSA) = details: crop plant compatibility
Summary of the method: (§3)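 Foliar application at the one-leaf stage: WP/EC formulation, 0.5% additive, 600 l/ha water. Greenhouse-grown in sandy loam. Endpoint is visual % injury relative to untreated controls at about 3 weeks.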

Zea mays (ZEAMX) = details: 20 g/ha, ZEAMX, effect in comparison to untreated controls
Summary of the method: as §3

[19] = test system: Pharbitis purpurea (PHBPU); experiment: Post-emergence herbicidal action against PHBPU
Summary of the method: as §2

Setaria viridis (SETVI) [20] = experiment: Post-emergence herbicidal action against SETVI
Summary of the method: as §2

Viola tricolor (VIOTR) [21] = experiment: Post-emergence herbicidal action against VIOTR
Summary of the method: as §2

[22] = Dosage column 320 g/ha (title prints 3200 g/ha), scored visually after about 3 weeks

CCOC(=O)[C@@H](C)Oc1nn(-c2ncccc2F)c(-c2ccc(F)nc2)c1Br [Example I-33]
Pre-emergence action against ABUTH [1, 22]: 80% | Pre-emergence action against ALOMY ([2]; 80 g/ha): 100% | Pre-emergence action against ALOMY ([2]; 320 g/ha): 100% | Pre-emergence action against AMARE in % ([3]; 80 g/ha): 90% | Pre-emergence action against AMARE in % ([3]; 320 g/ha): 100% | Pre-emergence action against AVEFA in % (Avena fatua (AVEFA) [4]; 80 g/ha): 80% | Pre-emergence action against AVEFA in % (Avena fatua (AVEFA) [4]; 320 g/ha): 100% | Pre-emergence action against ECHCG in % ([5]; dosage 80 g/ha): 90% | Pre-emergence action against ECHCG in % ([5]; dosage 320 g/ha): 100% | Pre-emergence action against LOLRI in % (Lolium rigidum (LOLRI) [6]; dosage 80 g/ha): 90% | Pre-emergence action against LOLRI in % (Lolium rigidum (LOLRI) [6]; dosage 320 g/ha): 100% | Pre-emergence action against MATIN in % ([7]; dosage 320 g/ha): 90% | Pre-emergence action against PHBPU in % ([8]; dosage 320 g/ha): 90% | Pre-emergence action against POLCO in % ([9]; dosage 80 g/ha): 90% | Pre-emergence action against POLCO in % ([9]; dosage 320 g/ha): 100% | Pre-emergence action against SETVI in % (Setaria viridis (SETVI) [10]; dosage 80 g/ha): 90% | Pre-emergence action against SETVI in % (Setaria viridis (SETVI) [10]; dosage 320 g/ha): 100% | Pre-emergence action against VERPE in % ([11]; dosage 320 g/ha): 100% | Pre-emergence action against VIOTR in % (Viola tricolor (VIOTR) [12]; 320 g/ha, Viola tricolor): 100% | Pre-emergence action against VIOTR in % (Viola tricolor (VIOTR) [12]; dosage 80 g/ha): 100% | Post-emergence action against ALOMY in % ([13]; 80 g/ha): 90% | Post-emergence action against AVEFA in % (Avena fatua (AVEFA) [14]; 80 g/ha): 90% | Post-emergence action against ECHCG in % ([15]; dosage 80 g/ha): 90% | Post-emergence action against LOLRI in % (Lolium rigidum (LOLRI) [16]; dosage 80 g/ha): 80% | Post-emergence action against MATIN in % ([17]; dosage 80 g/ha): 80% | Post-emergence action against VERPE in % ([18]; dosage 80 g/ha): 90% | Post-emergence action against ORYSA in % (Oryza sativa (ORYSA); 20 g/ha, effect vs untreated controls): 0% | Post-emergence action against ORYSA in % (Oryza sativa (ORYSA); 80 g/ha, effect in comparison to untreated controls): 10% | Post-emergence action against ZEAMX in % (crop plant compatibility) (Zea mays (ZEAMX)): 10%

COC(=O)[C@@H](C)Oc1nn(-c2ccccn2)c(-c2cncc(F)c2)c1Cl [Example I-189]
Pre-emergence action against ABUTH ([1]; 80 g/ha, scored visually after about 3 weeks vs untreated controls, 0% = like control plants): 80% | Pre-emergence action against ABUTH [1, 22]: 90% | Pre-emergence action against ALOMY ([2]; 80 g/ha): 80% | Pre-emergence action against ALOMY ([2]; 320 g/ha): 90% | Pre-emergence action against AMARE in % ([3]; 80 g/ha): 100% | Pre-emergence action against AMARE in % ([3]; 320 g/ha): 100% | Pre-emergence action against AVEFA in % (Avena fatua (AVEFA) [4]; 80 g/ha): 90% | Pre-emergence action against AVEFA in % (Avena fatua (AVEFA) [4]; 320 g/ha): 90% | Pre-emergence action against ECHCG in % ([5]; dosage 80 g/ha): 90% | Pre-emergence action against ECHCG in % ([5]; dosage 320 g/ha): 100% | Pre-emergence action against LOLRI in % (Lolium rigidum (LOLRI) [6]; dosage 80 g/ha): 100% | Pre-emergence action against LOLRI in % (Lolium rigidum (LOLRI) [6]; dosage 320 g/ha): 100% | Pre-emergence action against MATIN in % ([7]; dosage 80 g/ha): 90% | Pre-emergence action against MATIN in % ([7]; dosage 320 g/ha): 100% | Pre-emergence action against PHBPU in % ([8]; dosage 80 g/ha): 90% | Pre-emergence action against PHBPU in % ([8]; dosage 320 g/ha): 90% | Pre-emergence action against POLCO in % ([9]; dosage 80 g/ha): 100% | Pre-emergence action against POLCO in % ([9]; dosage 320 g/ha): 100% | Pre-emergence action against SETVI in % (Setaria viridis (SETVI) [10]; dosage 80 g/ha): 100% | Pre-emergence action against SETVI in % (Setaria viridis (SETVI) [10]; dosage 320 g/ha): 100% | Pre-emergence action against VERPE in % ([11]; dosage 80 g/ha): 90% | Pre-emergence action against VERPE in % ([11]; dosage 320 g/ha): 100% | Pre-emergence action against VIOTR in % (Viola tricolor (VIOTR) [12]; 320 g/ha, Viola tricolor): 100% | Pre-emergence action against VIOTR in % (Viola tricolor (VIOTR) [12]; dosage 80 g/ha): 100% | Post-emergence action against ALOMY in % ([13]; 80 g/ha): 80% | Post-emergence action against ALOMY in % ([13]; 320 g/ha): 90% | Post-emergence action against AVEFA in % (Avena fatua (AVEFA) [14]; 80 g/ha): 90% | Post-emergence action against AVEFA in % (Avena fatua (AVEFA) [14]; 320 g/ha): 90% | Post-emergence action against ECHCG in % ([15]; dosage 80 g/ha): 90% | Post-emergence action against ECHCG in % ([15]; dosage 320 g/ha): 90% | Post-emergence action against LOLRI in % (Lolium rigidum (LOLRI) [16]; dosage 80 g/ha): 100% | Post-emergence action against LOLRI in % (Lolium rigidum (LOLRI) [16]; dosage 320 g/ha): 100% | Post-emergence action against MATIN in % ([17]; dosage 80 g/ha): 90% | Post-emergence action against MATIN in % ([17]; dosage 320 g/ha): 90% | Post-emergence action against PHBPU in % ([19]; dosage 80 g/ha): 90% | Post-emergence action against PHBPU in % ([19]; dosage 320 g/ha): 90% | Post-emergence action against SETVI in % (Setaria viridis (SETVI) [20]; dosage 80 g/ha): 90% | Post-emergence action against SETVI in % (Setaria viridis (SETVI) [20]; dosage 320 g/ha): 90% | Post-emergence action against VERPE in % ([18]; 320 g/ha, VERPE): 90% | Post-emergence action against VERPE in % ([18]; dosage 80 g/ha): 90% | Post-emergence action against VIOTR in % (Viola tricolor (VIOTR) [21]; 80 g/ha): 90% | Post-emergence action against VIOTR in % (Viola tricolor (VIOTR) [21]; 320 g/ha): 90%
